Source: the supplement of paper PMC10307832

What was measured:
Assay in all cases: relative viability (nuclei count vs DMSO), 5 days (fraction); higher = more cells survive
NCI-H441 = system: NCI-H441
In short: (§1)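 Lung cancer cell lines, seeded in 1536-well plates, were treated the following day by pin tool with a single drug or with five library-drug doses (not always all listed) in √10 steps on top of a fixed anchor-drug dose. Cells were fixed and nuclei stained in one step after 5 days, and nuclei were counted. Relative viability is the nuclei count for treated wells divided by that for vehicle wells, reported as medians of duplicate plates.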

EKVX = system: EKVX
In short: as §1

NCI-H358 = system: NCI-H358
In short: as §1

HCC-366 = system: HCC-366
In short: as §1

NCI-H1437 = system: NCI-H1437
In short: as §1

LOU-NH91 = system: LOU-NH91
In short: as §1

NCI-H1650 = system: NCI-H1650
In short: as §1

HCC-15 = system: HCC-15
In short: as §1

NCI-H1734 = system: NCI-H1734
In short: as §1

LCLC-103H = system: LCLC-103H
In short: as §1

BEN = system: BEN
In short: as §1

NCI-H1395 = system: NCI-H1395
In short: as §1

NCI-H838 = system: NCI-H838
In short: as §1

NCI-H1651 = system: NCI-H1651
In short: as §1

NCI-H460 = system: NCI-H460
In short: as §1

NCI-H1755 = system: NCI-H1755
In short: as §1

CAL-12T = system: CAL-12T
In short: as §1

NCI-H2085 = system: NCI-H2085
In short: as §1

NCI-H1563 = system: NCI-H1563
In short: as §1

NCI-H1975 = system: NCI-H1975
In short: as §1

HCC-44 = system: HCC-44
In short: as §1

NCI-H1355 = system: NCI-H1355
In short: as §1

NCI-H2023 = system: NCI-H2023
In short: as §1

NCI-H2342 = system: NCI-H2342
In short: as §1

CC(C)Oc1cc(Nc2nc(N[C@@H](C)c3ccc(F)cn3)ncc2Cl)n[nH]1 [AZ23] + Nc1nc2[nH]cc(CCc3ccc(C(=O)N[C@@H](CCC(=O)O)C(=O)O)cc3)c2c(=O)[nH]1 [Pemetrexed] (partner 0.2 µM)
relative viability (NCI-H441; first compound 0.01 µM): 0.262
relative viability (NCI-H441; first compound 0.03162 µM): 0.242
relative viability (NCI-H441; first compound 0.3162 µM): 0.267
relative viability (EKVX; first compound 0.01 µM): 0.24
relative viability (EKVX; first compound 0.03162 µM): 0.5
relative viability (EKVX; first compound 0.3162 µM): 0.381
relative viability (NCI-H358; first compound 0.01 µM): 0.151
relative viability (NCI-H358; first compound 0.03162 µM): 0.175
relative viability (NCI-H358; first compound 0.3162 µM): 0.17
relative viability (HCC-366; first compound 0.01 µM): 0.0994
relative viability (HCC-366; first compound 0.03162 µM): 0.186
relative viability (HCC-366; first compound 0.3162 µM): 0.171
relative viability (NCI-H1437; first compound 0.01 µM): 0.283
relative viability (NCI-H1437; first compound 0.03162 µM): 0.345
relative viability (NCI-H1437; first compound 0.3162 µM): 0.331
relative viability (LOU-NH91; first compound 0.01 µM): 0.505
relative viability (LOU-NH91; first compound 0.03162 µM): 0.386
relative viability (LOU-NH91; first compound 0.3162 µM): 0.394
relative viability (NCI-H1650; first compound 0.01 µM): 0.295
relative viability (NCI-H1650; first compound 0.03162 µM): 0.406
relative viability (NCI-H1650; first compound 0.3162 µM): 0.359
relative viability (HCC-15; first compound 0.01 µM): 0.204
relative viability (HCC-15; first compound 0.03162 µM): 0.222
relative viability (HCC-15; first compound 0.3162 µM): 0.208
relative viability (NCI-H1734; first compound 0.01 µM): 0.358
relative viability (NCI-H1734; first compound 0.03162 µM): 0.454
relative viability (NCI-H1734; first compound 0.3162 µM): 0.41
relative viability (LCLC-103H; first compound 0.01 µM): 0.448
relative viability (LCLC-103H; first compound 0.03162 µM): 0.433
relative viability (LCLC-103H; first compound 0.3162 µM): 0.466
relative viability (BEN; first compound 0.01 µM): 0.634
relative viability (BEN; first compound 0.03162 µM): 0.892
relative viability (BEN; first compound 0.3162 µM): 0.732
relative viability (NCI-H1395; first compound 0.03162 µM): 0.97
relative viability (NCI-H1395; first compound 0.3162 µM): 0.929
relative viability (NCI-H838; first compound 0.01 µM): 0.207
relative viability (NCI-H838; first compound 0.03162 µM): 0.27
relative viability (NCI-H838; first compound 0.3162 µM): 0.243
relative viability (NCI-H1651; first compound 0.01 µM): 0.349
relative viability (NCI-H1651; first compound 0.03162 µM): 0.597
relative viability (NCI-H1651; first compound 0.3162 µM): 0.615
relative viability (NCI-H460; first compound 0.01 µM): 0.0522
relative viability (NCI-H460; first compound 0.03162 µM): 0.0661
relative viability (NCI-H460; first compound 0.3162 µM): 0.0611
relative viability (NCI-H1755; first compound 0.01 µM): 0.401
relative viability (NCI-H1755; first compound 0.03162 µM): 0.459
relative viability (NCI-H1755; first compound 0.3162 µM): 0.468
relative viability (CAL-12T; first compound 0.03162 µM): 1.24
relative viability (CAL-12T; first compound 0.3162 µM): 1.23
relative viability (NCI-H2085; first compound 0.01 µM): 0.806
relative viability (NCI-H2085; first compound 0.03162 µM): 0.907
relative viability (NCI-H2085; first compound 0.3162 µM): 0.994
relative viability (NCI-H1563; first compound 0.01 µM): 0.69
relative viability (NCI-H1563; first compound 0.03162 µM): 0.934
relative viability (NCI-H1563; first compound 0.3162 µM): 0.885
relative viability (NCI-H1975; first compound 0.01 µM): 0.272
relative viability (NCI-H1975; first compound 0.03162 µM): 0.296
relative viability (NCI-H1975; first compound 0.3162 µM): 0.312
relative viability (HCC-44; first compound 0.01 µM): 0.373
relative viability (HCC-44; first compound 0.03162 µM): 0.66
relative viability (HCC-44; first compound 0.3162 µM): 0.698
relative viability (NCI-H1355; first compound 0.01 µM): 1.13
relative viability (NCI-H1355; first compound 0.03162 µM): 1.11
relative viability (NCI-H1355; first compound 0.3162 µM): 1.05
relative viability (NCI-H2023; first compound 0.03162 µM): 0.268
relative viability (NCI-H2023; first compound 0.3162 µM): 0.219
relative viability (NCI-H2342; first compound 0.01 µM): 0.903
relative viability (NCI-H2342; first compound 0.03162 µM): 0.811
relative viability (NCI-H2342; first compound 0.3162 µM): 0.776
